# Data published in patent publication US20230054976A1, “METHODS FOR INHIBITION OF ALPHA-SYNUCLEIN mRNA USING SMALL MOLECULES” (The Scripps Research Institute, priority 2019, published 2023).
# “Also recorded” adds a separate entry of the source.
# Assays:
# SNCA mRNA [1] = test: RT-qPCR of SNCA mRNA levels in SH-SY5Y cells; format: cell-based, human
# 5′ UTR of SNCA mRNA = test: In vitro translation assay (rabbit reticulocyte lysate), SNCA-5′-UTR-Luc mRNA; format: biochemical, human
# Description: Luciferase assay. The effect of Synucleozid treatment on translation from various IRE containing transcripts was determined using luciferase reporter assay. SH-SY5Y cells stably expressing 5' UTR were treated with Synucleozid for 48 h, washed with PBS and lysed with Passive Lysis Buffer for 15 min at room temperature. Luciferase reporter activity in each lysate was monitored using the dual luciferase reporter assay system kit (Promega. Madison, Wis., USA) according to the manufacturer's instructions. Luminescence from firefly luciferase reaction was measured using a microplate luminometer (Wallac 1420, Perkin Elmer) at 485 nm excitation and 535 nm emission wavelengths. Firefly luciferase reaction was then quenched by adding Stop & Glo reagent, and the internal fluorescence from GFP measured at the same setting was used to normalize luciferase expression. Luciferase reporter activity was expressed as percent change compared to the respective vehicle-treated control cells. In vitro translation assay. The mRNA template for in vitro translational assays was transcribed from the pIRES-Luc-EGFP-puro and pCDH-α-syn-5'-UTR-Luc-EGFP-puro plasmids by using an in vitro transcription system (RiboMax, Promega) with forward primer: [NT] and reverse primer: [NT]. […] Translation proceeded at 30° C. for 90 min, and then luminescence was measured with a Biomek FLx800 plate reader (1.0 s integration time).
# SH-SY5Y cells = test: Cell viability (MTS) assay; format: cell-based, human; conditions: 0.25, 0.5 and 1 μM, 48 h
# Description: To assess if Synucleozid has a cytotoxic effect, SH-SY5Y cells were treated with 0.25 μM to 1 μM for 48 h, and cell viability and cytotoxicity were measured using CellTiter 96 Aqueous One Solution Cell Proliferation Assay (MTS) according to the manufacturers' instructions.
# To assess if Synucleozid has a cytotoxic effect, SH-SY5Y cells were treated with 0.25, 0.5 and 1 μM for 48 h, and cell viability and cytotoxicity were measured using CellTiter 96 Aqueous One Solution Cell Proliferation Assay (MTS) and LDH release assay, respectively, according to the manufacturers' instructions.
# [2] = target: RNA-1 (A bulge mutated to a base pair); test: Competitive binding assay (2-AP), RNA-1
# Description: EC50 was calculated from Eq. (1).
# SNCA mRNA [3] = test: ASO-Bind-Map in cells (gapmer ASO, RT-qPCR); format: cell-based, human; conditions: SH-SY5Y cells, gapmer 200 nM
# Description: Mapping Synucleozid's binding site in cells with ASO-Bind-Map. SH-SY5Y cells were treated with vehicle (DMSO) or Synucleozid at 60% confluency overnight and were then transfected with a gapmer ASO (200 nM) with Lipofectamine RNAiMAX (Invitrogen) according to the manufacturer's instructions. Mock samples were generated by treating cells with transfection reagent lacking oligonucleotide. RNA extraction, cDNA synthesis and RT-qPCR were performed as described above after 48 h. Primers for SNCA mRNA in this experiment cover sequences upstream and downstream of the IRE; forward primer: [NT]; reverse primer [NT].
# [4] = target: T1, IRP-2:SNCA IRE RNA complex (Homo sapiens, UniProt P48200); test: In vitro displacement of IRPs by gel mobility shift assay, IRP-2; format: binding; conditions: 0.2, 1, 5 μM; pre-incubation 1-60 min
# T1 construct: purchased Abnova
# Description: In vitro displacement of IRPs by gel mobility shift assays. SNCA IRE hairpin RNA was 5′-end labeled with [γ-^32P]ATP as previously described^5. Approximately, 2 pmoles of ^32P labeled RNA per 20 μL reaction was folded in 1× Assay Buffer by heating at 65° C. for 5 min and slowly cooling to room temperature. As indicated, vehicle, Synucleozid (0.2, 1, 5 μM) or unlabeled IRE RNA (1 μM, folded as described above and used as a positive control) was added to the samples, and the samples were incubated at room temperature for varying amounts of time (1-60 min as indicated). Then, 0.5 μg IRP-1 or IRP-2 (Abnova) was added, and the samples were incubated at room temperature for an additional 30 min. An equal volume of 2× Native Gel Loading Buffer (2×TBE, 50% Glycerol, 0.025% (w/v) Bromophenol blue and Xylene cyanol FF) was added to each sample. Note, Native Gel Loading Buffer added to Synucleozid-treated samples was supplemented with the same concentration of Synucleozid as in the sample to maintain a constant concentration. IRP:IRE complexes and free IRE were separated on a native 15% polyacrylamide prepared 1×TBE supplemented with the same concentration of Synucleozid as in compound-treated samples, and imaged using a Bio-Rad PMI phosphorimager. Images were quantified with BioRad's Quantity One software.
# tRNA = test: Competitive binding assay (2-AP), tRNA
# Description: I and I0 are the observed fluorescence intensity in the presence and absence of 2-AP RNA. Δε is the difference between the fluorescence intensity in the absence and presence of infinite 2-AP RNA. […] EC50 was calculated from Eq. (1). […] The change of fluorescence intensity was fit to Eq. (2):
# θ is the percentage of 2-AP RNA bound. [RNA] is the concentration of 2-AP RNA. EC50 is the EC50 of Synucleozid determined in the assay above. [Synucleozid] is the concentration of Synucleozid. Cc is the concentration of competitive RNA. Kd is competitive dissociation constant and A is a constant.
# T1 sequence (P48200 whole entry, species assumed, one chain of several): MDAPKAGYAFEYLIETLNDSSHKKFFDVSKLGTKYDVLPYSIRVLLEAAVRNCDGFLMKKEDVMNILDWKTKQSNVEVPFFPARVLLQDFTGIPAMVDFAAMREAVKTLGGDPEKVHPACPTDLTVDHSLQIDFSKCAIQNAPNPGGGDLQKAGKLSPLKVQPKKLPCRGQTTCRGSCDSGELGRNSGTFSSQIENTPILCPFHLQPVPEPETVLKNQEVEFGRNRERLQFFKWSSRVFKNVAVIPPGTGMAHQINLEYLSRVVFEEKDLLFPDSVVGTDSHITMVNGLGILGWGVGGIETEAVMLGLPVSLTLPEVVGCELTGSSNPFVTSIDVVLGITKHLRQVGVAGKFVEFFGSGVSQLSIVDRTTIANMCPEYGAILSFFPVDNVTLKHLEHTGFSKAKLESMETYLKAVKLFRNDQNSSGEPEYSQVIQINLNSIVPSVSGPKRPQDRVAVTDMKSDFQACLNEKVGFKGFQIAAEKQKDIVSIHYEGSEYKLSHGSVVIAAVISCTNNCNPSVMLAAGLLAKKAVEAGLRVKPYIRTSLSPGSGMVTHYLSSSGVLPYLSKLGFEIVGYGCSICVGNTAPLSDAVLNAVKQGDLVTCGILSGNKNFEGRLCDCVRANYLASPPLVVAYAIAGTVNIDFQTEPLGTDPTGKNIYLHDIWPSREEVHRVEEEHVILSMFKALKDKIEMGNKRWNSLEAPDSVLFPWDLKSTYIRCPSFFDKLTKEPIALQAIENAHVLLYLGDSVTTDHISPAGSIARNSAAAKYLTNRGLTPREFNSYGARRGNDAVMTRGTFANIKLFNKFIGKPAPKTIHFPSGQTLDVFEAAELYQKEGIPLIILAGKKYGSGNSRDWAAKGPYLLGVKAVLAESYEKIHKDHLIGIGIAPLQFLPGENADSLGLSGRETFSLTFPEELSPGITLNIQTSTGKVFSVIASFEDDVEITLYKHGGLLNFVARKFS
compound,measurement,setting,value
N=C(N)c1ccc(Nc2ccc(-c3cc4ccc(C(=N)N)cc4[nH]3)cc2)cc1 [Synucleozid A],effect on steady-state levels of SNCA mRNA,SNCA mRNA [1],no effect
same,"inhibition of luciferase expression in vitro, SNCA-5′-UTR-Luc",5′ UTR of SNCA mRNA,inhibited luciferase expression in a concentration-dependent manner
same,cell viability (MTS),SH-SY5Y cells,no toxicity
same,cell viability (MTS),SH-SY5Y cells; listed as Synucleozid,no effect
same,Kd,[2],~20 µM
same,reduction of avidity compared to the native IRE,[2],10 fold
same,effect on SNCA mRNA cleavage by ASO(29-39),SNCA mRNA [3],no effect; also recorded: Protection is not observed
same,effect with the control ASO,SNCA mRNA [3],no effect
same,EC50,SNCA mRNA [3]; read-out: EC50 for inhibition of SNCA mRNA cleavage by ASO(1-10),1 µM
same,effect on binding of IRP-2 to SNCA IRE RNA,[4],"Neither Synucleozid concentration (0.2, 1, 5 μM) nor pre-incubation time (1, 5, 15, 60 min) has any significant effect"
same,competitor RNA concentration needed for recovery of 2-AP emission,tRNA,> 100 µM
